Laboratory results taken from article PMC8703807, “Synthesis of ^68Ga-Labeled cNGR-Based Glycopeptides and In Vivo Evaluation by PET Imaging” (Pharmaceutics, 2021).
Where two headings read alike, the source gives them in different places. Positions of bridges follow the written chain, without caps; N, C: chain ends. Residues, ends and D or L forms follow the SMILES beside them. *: point of attachment. X1 = O=C(O)CN1CCN(CC(=O)O)CCN(C(CCC(=O)NCc2ccc(NC(=S)*)cc2)C(=O)O)CCN(CC(=O)O)CC1

How the values were obtained:
[1] = In vivo PET imaging of B16-F10 melanoma tumor-bearing mice; details: C57BL/6, mouse, in vivo, iv, total radioactivity
Procedure: (§1) For subcutaneous B16-F10 (mouse melanoma) tumor induction, C57BL/6 mice (n = 20) were anaesthetized with 3% isoflurane (Forane, AbbVie) using a dedicated small animal anesthesia device (Tec3 Isoflurane Vaporizer, Eickemeyer, UK) and mice were injected subcutaneously with 3 × 10^6 B16-F10 cells in 150 µL of sterile saline into the left shoulder area of the animals. In vivo and ex vivo experiments were carried out 10 ± 1 days after subcutaneous injection of tumor cells at the tumor volume of 80 ± 2 mm^3.
(§2) For in vivo biodistribution studies B16-F10 tumor-bearing mice were anaesthetized with 3% isoflurane and were injected with 6.6 ± 0.3 MBq [^68Ga]-11, or [^68Ga]-3, or [^68Ga]-9 or [^68Ga]-10 in 150 μL saline via the lateral tail vein 10 ± 1 days after subcutaneous injection of tumor cells. 20 min static PET scans were performed 70 min after intravenous injection of the radiotracers from the tumorous area using the preclinical miniPET-II device (University of Debrecen, Faculty of Medicine, Department of Medical Imaging, Division of Nuclear Medicine and Translational Imaging). After image reconstruction, volumes of interest (VOIs) were manually drawn around the examined regions using the BrainCAD image analysis software and quantitative standardized uptake values (SUVs) values were calculated.
(§3) Figure 1 In vivo PET imaging of [^68Ga]-11, [^68Ga]-3, [^68Ga]-9 and [^68Ga]-10 accumulation in B16-F10 tumor-bearing mice 10 ± 1 days after tumor cell inoculation and 70 min after intravenous injection of the radiotracers (A panel). Red arrows: B16-F10 tumor; black arrows: liver. (B,C) panels: quantitative SUVmean and tumor-to-background (muscle) ratio (T/M) analysis of tracer uptake in mice (n = 3/radiopharmaceutical) 70 min post-injection. Significance level: p ≤ 0.05 (*). SUV: standardized uptake value; T/M: tumor-to-muscle ratio. SUV values are presented as mean ± SD.

[2] = test system: B16-F10 melanoma tumor-bearing mice; experiment: as above; details: 70 min after i.v. injection; for identification of subcutaneous B16-F10 tumors on PET images: qualitative
Procedure: as §1, §2, §3

[3] = Determination of logP value (octanol/water partition coefficient); assay type: physicochemical
Procedure: The mixture was shaken with a vortex shaker for 5 min and centrifugated (9000 rpm) for 5 min. A 3 × 20 µL amount of both solvents was pipetted into a vial. The radioactivity of the fractions was determined with a gamma counter.

[4] = test system: B16-F10 tumor-bearing mice; details: ex vivo, 90 min after injection, compared to the other investigated molecules
Procedure: as §1

[5] = tumor SUVmean, B16-F10 tumor, 70 min after i.v. injection, n = 3, mean ± SD
[6] = 1-octanol/water, gamma counter, read-out: octanol/water partition coefficient (logP)

SUV at 70 min ([1]; liver SUVmean) [SUV] | SUV at 70 min ([1]; tumor SUVmean) [SUV] | logP [3] | SMILES | tissue to tissue ratio at 70 min [1] | SUV at 70 min ([1]; liver SUVmean, 70 min after i.v. injection, n = 3, mean ± SD) [SUV] | SUV at 70 min [1, 5] [SUV] | identification of subcutaneous B16-F10 tumors on PET images [2] | logP [3, 6] | radioactivity concentration in blood [4] | liver SUVmean ([2]; n = 3, mean ± SD)
 |  |  | N=C(N)NCCC[C@@H]1NC(=O)CNC(=O)[C@H](CC(N)=O)NC(=O)[C@H](CCCCNC(=O)CCOCCOCCOCCOCCNC(=O)CCC(=O)N2Cc3ccccc3-c3c(nnn3CCCO[C@@H]3O[C@H](CO)[C@@H](O[C@@H]4O[C@H](CO)[C@H](O)[C@H](O)[C@H]4O)[C@H](O)[C@H]3NC(=S)Nc3ccc(CNC(=O)CCC(C(=O)O)N4CCN(CC(=O)O)CCN(CC(=O)O)CCN(CC(=O)O)CC4)cc3)-c3ccccc32)NC(=O)CC[C@@H](C(N)=O)NC1=O (stereo partly shown) [[^68Ga]-10, metal not drawn] | 7.89 ± 1.31 | 0.1 ± 0.02 | 0.15 ± 0.01 | clearly identified | -3.69 | higher radioactivity concentration | 
0.28 ± 0.1 | 0.09 ± 0.03 | -4.13 | N=C(N)NCCC[C@@H]1NC(=O)CNC(=O)[C@H](CC(N)=O)NC(=O)[C@H](CCCCNC(=S)Nc2ccc(CNC(=O)CCC(C(=O)O)N3CCN(CC(=O)O)CCN(CC(=O)O)CCN(CC(=O)O)CC3)cc2)NC(=O)CC[C@@H](C(N)=O)NC1=O (stereo partly shown) [[^68Ga]-11, metal not drawn] (K(X1)NGRE-NH2; lactam N-5) | 5.71 ± 1.17 |  |  | clearly identified |  |  | 
 |  |  | N=C(N)NCCC[C@@H]1NC(=O)CNC(=O)[C@H](CC(N)=O)NC(=O)[C@H](CCCCNC(=O)CCC(=O)N2Cc3ccccc3-c3c(nnn3CCCO[C@@H]3O[C@H](CO)[C@@H](O[C@@H]4O[C@H](CO)[C@H](O)[C@H](O)[C@H]4O)[C@H](O)[C@H]3NC(=S)Nc3ccc(CNC(=O)CCC(C(=O)O)N4CCN(CC(=O)O)CCN(CC(=O)O)CCN(CC(=O)O)CC4)cc3)-c3ccccc32)NC(=O)CC[C@@H](C(N)=O)NC1=O (stereo partly shown) [[^68Ga]-9, metal not drawn] | 6.01 ± 1.24 |  | 0.11 ± 0.03 | clearly identified | -3.68 |  | 0.18 ± 0.01
